Test results reported in patent US20210030005A1, “BENZOXABOROLE COMPOSITIONS HAVING A GROWTH ENHANCING EFFECT” (BORAGEN, INC., priority 2018, published 2021).

Columns and labels:
red table beet = assay: Soil drench growth enhancing effect, red table beet; assay type: in vivo; details: for Average Dry Matter Weight / Average Root Length / Average Shoot Height: 4 treatments every 14 days, 14 days after final treatment
Description: Boron-containing compounds/compositions were applied directly to the soil, and the growth of plants was measured. An exemplary embodiment of a benzoxaborole compound includes 5-chlorobenzo[c][1,2]oxaborol-1(3H)-ol, which may be referred to herein as BAG8.
Eight 2-gallon pots were filled with steamed soil for each of the five treatments listed below:
3-4 seeds were planted into each pot at a depth of 1 inch and covered. All seedlings were subjected to 16 hours of daylight at ˜800 μmol/m^2/second (light intensity) provided by cool-white fluorescent lamps. Daytime temperatures were ˜25° C. and were dropped to ˜18° C. at night.
Solutions were prepared by first dissolving the appropriate amount of benzoxaborole in ethanol or acetone then adding to distilled water. 100 mL of treatment was applied to each pot in a circular motion to evenly coat the surface of the soil. These treatments were applied every 14 days for a total of 4 treatments, including the at-planting treatment. Each pot was monitored, and 50 mL of distilled water was added to each pot when soil was dry.
Germination and shoot height data were recorded every seven days. 14 days after the final treatment application, plants were carefully removed from each pot and final shoot length, root length, and dry matter weight were recorded.
This experiment was conducted on red table beet, broccoli, snow pea, turnips, and spring wheat.

maize seeds = assay: Seed treatment growth effect on maize (germination trays); assay type: in vivo; details: for Mean Root Length / Mean Stem Length: suspension concentrate, 10 days
Description: A sample suspension concentrate was prepared by mixing 0.8 g of Atlas G-5002L, 0.8 g ATLOX 4913, 5 g of glycerin, 50 mg of anti-foam compound, 0.178 g of xanthan gum, 89 mg of anti-microbial, 53.08 g of water, and 40 g of BAG8. […] […] The container was then shaken to evenly coat the seeds and allowed to dry overnight. Once dry, 50 seeds from each rate and 50 untreated seeds were placed in separate seed germination trays with moist paper towel. 10 days later, root and stem lengths from each seed were taken. Analysis of variance was used to examine root and stem length data and means were separated using Fisher's least significant difference at α=0.05.

wheat seedlings = assay: Soil drench treatment on wheat seedlings (perlite); assay type: in vivo; details: for Mean Root Length: 10 days after germination, measured 10 days following drench
Description: (§1) Sample soil drench treatments were prepared by dissolving […], 3.19 mg, or 3.99 mg of BAG8 in 67.5 mL of acetone in separate vials. Each vial was then added to 202.5 mL of water and shaken vigorously to produce a suitable sample for soil drench treatment at rates of 75 g/A, 100 g/A, and 125 g/A, respectively.
(§2) Wheat seeds were sown into pots filled with perlite growth medium and allowed to germinate under normal glass house conditions. 10 days after germination the pots were drenched with the respective BAG8 solutions. 10 days following the drench, root and stem lengths were measured. Analysis of variance was used to examine root length data and means were separated using Fisher's least significant difference at α=0.05.

canola seedlings = assay: Soil drench treatment on canola seedlings (perlite); assay type: in vivo; details: for Mean Stem Length: 10 days after germination, measured 10 days following drench
Description: as §1
as §2, with “Canola” for “Wheat”, “drench,” for “drench, root and”, “stem” for “root”

soybean seedlings = assay: Soil drench treatment on soybean seedlings (perlite); assay type: in vivo; details: for Mean Root Length: 10 days after germination, measured 10 days following drench
Description: as §1
as §2, with “Soybean” for “Wheat”, “root” for “root and stem”, “[…]” for “root”

[1] = test system: Asian Soybean Rust (Phakopsora pachyrhizi); assay: Field trial, Asian Soybean Rust severity on soybean; assay type: in vivo
Description: (§3) In this example, diseased soybeans having Asian Soybean Rust (Phakopsora pachyrhizi) were treated with BAG8 and Azoxystrobin. Testing was performed to assess the fungicidal effect of the compounds on Asian Soybean Rust and to assess the growth enhancing effects of the compounds on the diseased soybeans.
(§4) Soybeans were planted into 6×30 ft plots and replicated four times in a randomized complete block design. Two treatments and an untreated control were tested for efficacy against Asian Soybean Rust (Phakopsora pachyrhizi) and assessed for yield at the conclusion of the growing season. Foliar applications of the two treatments, BAG8 at 0.25 pounds of active ingredient per acre and azoxystrobin at 0.25 pounds of active ingredient per acre, were applied to the plots at two separate times: growth stage R1 (flowering) and growth stage R3 (bean pod formation). Best practices were used consistently across the test plots with regard to field conditions such as fertilization, insect control, weed control, and irrigation. Disease assessments were taken in each plot 28 days after the final foliar fungicide application. At maturity, each plot was harvested using standard harvesting equipment. After shelling, the beans were weighed at 13% moisture and yield calculations extrapolated to bushels per acre.
(§5) Analysis of variance (ANOVA) was used to examine disease severity data and means were separated using Fisher's least significant difference (LSD) method at α=0.05. […]

diseased soybeans = assay: Field trial, yield of diseased soybeans; assay type: in vivo, soybean
Description: as §3, §4, §5

[2] = treatment B, 0.12 lb/A soil drench
[3] = treatment C, 0.25 lb/A soil drench
[4] = treatment D, 0.35 lb/A soil drench
[5] = treatment E, 0.60 lb/A soil drench
[6] = all tested application rates, maize seed treatment

Compound: OB1OCc2cc(Cl)ccc21 [BAG8, 5-chlorobenzo[c][1,2]oxaborol-1(3H)-ol]
- growth effect compared with untreated control (red table beet; all application rates (0.12-0.60 lb/A), soil drench): longer shoots, longer roots, and greater dry matter weight than the untreated control
- Average Dry Matter Weight (red table beet; [2]): 10.70 mg
- Average Root Length (red table beet; [2]): 4.50 cm
- Average Shoot Height (red table beet; [2]): 3.33 cm
- Average Dry Matter Weight (red table beet; [3]): 11.10 mg
- Average Root Length (red table beet; [3]): 5.98 cm
- Average Shoot Height (red table beet; [3]): 4.24 cm
- Average Dry Matter Weight (red table beet; [4]): 11.30 mg
- Average Root Length (red table beet; [4]): 5.56 cm
- Average Shoot Height (red table beet; [4]): 4.09 cm
- Average Dry Matter Weight (red table beet; [5]): 13.00 mg
- Average Root Length (red table beet; [5]): 5.15 cm
- Average Shoot Height (red table beet; [5]): 5.01 cm
- increased root length relative to untreated control (maize seeds; [6]): 49-70%
- increased stem length relative to untreated control (maize seeds; [6]): 54-75%
- Mean Root Length (maize seeds; seed treatment 0.25 lb ai/A): 122.0 mm
- Mean Stem Length (maize seeds; seed treatment 0.25 lb ai/A): 141.0 mm
- Mean Root Length (maize seeds; seed treatment 0.50 lb ai/A): 110.2 mm
- Mean Stem Length (maize seeds; seed treatment 0.50 lb ai/A): 124.5 mm
- Mean Root Length (maize seeds; seed treatment 0.75 lb ai/A): 125.1 mm
- Mean Stem Length (maize seeds; seed treatment 0.75 lb ai/A): 136.5 mm
- increased root length relative to untreated control (wheat seedlings; all tested application rates, soil drench, wheat seedlings): 27-45%
- Mean Root Length (wheat seedlings; soil drench 75 g ai/A): 580.4 mm
- Mean Root Length (wheat seedlings; soil drench 100 g ai/A): 524.2 mm
- Mean Root Length (wheat seedlings; soil drench 125 g ai/A): 507.0 mm
- increased root length (canola seedlings; all tested application rates, soil drench, canola seedlings): 19-65%
- Mean Stem Length (canola seedlings; soil drench 75 g ai/A): 39.2 mm
- Mean Stem Length (canola seedlings; soil drench 100 g ai/A): 33.8 mm
- Mean Stem Length (canola seedlings; soil drench 125 g ai/A): 47.1 mm
- increased root length (soybean seedlings; all tested application rates, soil drench, soybean seedlings (Table 12)): 6-27%
- Mean Root Length (soybean seedlings; soil drench 75 g ai/A): 329.5 mm
- Mean Root Length (soybean seedlings; soil drench 100 g ai/A): 275.8 mm
- Mean Root Length (soybean seedlings; soil drench 125 g ai/A): 309.7 mm
- reduced disease in comparison to untreated control ([1]; 0.25 lb ai/A foliar): 47%
- Disease Severity (% Leaf Coverage) ([1]; 0.25 lb ai/A foliar at R1 and R3, 28 days after final application): 48.2 c % Leaf Coverage
- increased soybean yield (diseased soybeans; 0.25 lb ai/A foliar): 281%
- Yield (diseased soybeans; 0.25 lb ai/A foliar at R1 and R3, harvest at maturity, 13% moisture): 55.6 a bu/A
